In series [1] the test system is metastatic pancreatic cancer. The following applies: metastatic disease, erlotinib with gemcitabine vs gemcitabine alone, cited from earlier work; for one-year survival rate: P=0.023; for median overall survival: P=0.038.
For series [2], the system named is DMBA breast tumors. Kind of series: DMBA breast tumor model, TSC before chemotherapy. The format is in vivo. To be noted: TSC and control groups. As to the method: Breast tumors were induced through injection of DMBA (dimethylbenzantracene) under the mammary tissue of female rats. The tumors usually grow in most rats and reach measurable conditions after 10 days.
The following studies used a method in which a 3-mL syringe is filled first with 1 ml of DMBA dissolved in sunflower seed oil (20 mg DMBA per mL of solution). Following that, 2 mL's of air are pulled into the syringe. The needle of the syringe is then inserted under the mammary tissue near a hind leg and the air in the syringe is carefully injected. The injection of the air forms a “pocket”, and then the 1 mL of DMBA solution is injected into that pocket.
After the tumors have grown up (about 10 days), their volumes are estimated by measuring the diameter (d) and the length (L) of the football-shaped tumors formed. This is done using calipers after feeling the tumor with one's fingers. To estimate the volume of the tumor, you multiply the diameter squared times the length and divide by 2: Tumor volume (in mm3)={(d in mm)^22}×(L in mm)
TSC or saline (controls) was injected in the tail vein of the rats at a volume of 0.1 mL and a dose of 0.25 mg/kg TSC about 1-2 hours before the chemotherapeutic agent was injected intraperitoneally (IP) in the rats.
In order to understand which dosages are efficacious when used with chemotherapy, a rat model of breast tumors was used. The model involves injecting the chemical dimethylbenzanthracene (DMBA) under the mammary gland of a female Sprague-Dawley rat. After a few days, tumors begin to grow and can be measured by feeling the football-shaped tumor under the skin and measured using calipers.

In series [3] the test system is metastatic pancreatic cancer. The following applies: treatment naive patients with metastatic cancer; nab-paclitaxel plus gemcitabine vs gemcitabine; cited from earlier work.
The test system of series [4] is pancreatic cancer. To be noted: cited from earlier work; for overall survival: Folfirinox regimen vs gemcitabine.
The subject of series [5] is recurrent GBM. To be noted: cited from earlier work.
For series [6], the system named is newly diagnosed GBM. To be noted: cited from earlier work.

Where two headings read alike, the source gives them in different places.

For the compound `C#Cc1cccc(Nc2ncnc3cc(OCCOC)c(OCCOC)cc23)c1` [erlotinib], in series [1], the one-year survival rate was 23% and the median overall survival is 6.24 months.

For the compound `Nc1ccn([C@@H]2O[C@H](CO)[C@@H](O)C2(F)F)c(=O)n1` [gemcitabine, reference compound], the mortality result is “Most rats in both groups were dead on Day 7” in series [2] (gemcitabine 5 mg/kg IP on days 0, 3) and “Most rats in both groups were dead on Day 6” in series [2] (gemcitabine 10 mg/kg IP on days 0, 3). Further, in series [1], the one-year survival rate was 17%. In series [1], the median overall survival was 5.91 months. The overall survival in series [3] is 6.7 months; in series [4] it was 6.8 months.

As to Folfirinox, the overall survival in series [4] is given as 11.1 months. Further, the adverse events result in series [4] (Folfirinox treatment) was “accompanied by serious adverse events”.

Regarding bevacizumab, in series [5] (Phase 2 study, recurrent GBM), the overall six-month survival is given as 54%. Besides, the six-month progression-free survival in series [5] (Phase 2 study, recurrent GBM, historical 9-15%) was 25%; in series [5] (another Phase 2 study, lower dose but higher frequency) it was 42.6%. Also, the “symptom burden, quality of life, neurocognitive function” value in series [6] (human, in vivo) was “increased symptom burden, a worse quality of life, and a decline in neurocognitive function”. Besides, the progression free survival result in series [6] (radiation, TMZ and bevacizumab vs only radiation and TMZ, both studies) was “increase in progression free survival”. Also, the overall survival result in series [6] (radiation, TMZ and bevacizumab vs only radiation and TMZ, two clinical trials) is on record as “no difference in overall survival”.

(Values after patent US11185523B2, “Use of bipolar trans carotenoids with chemotherapy and radiotherapy for treatment of cancer” (DIFFUSION PHARMACEUTICALS LLC, priority 2016, dated 2021).)
